# Test results taken from patent US8999987B2, “Dihydropyridophthalazinone inhibitors of poly(ADP-ribose)polymerase (PARP)” (BioMarin Pharmaceutical Inc., priority 2008, dated 2015).
# Experiments:
# [1] = target: PARP-1 (Homo sapiens, UniProt P09874); details: PARP-1 inhibitor; cited from earlier work
# [2] = system: BRCA2-deficient cell line V-C8; details: V-C8 compared with the BRCA2 wild type control; cited from earlier work
# [3] = system: CAPAN-1 cells; details: CAPAN-1 cells in DMEM with FCS (20% v/v); cited from earlier work
# [4] = system: BRCA2-deficient tumors; details: cited from earlier work
# [5] = system: MX-1 xenograft model; experiment: Xenograft combination study with Cisplatin; assay type: in vivo, mice; details: MX-1 breast xenograft model; comparable doses of cisplatin or PARP inhibitor alone
# Procedure: Female athymic nu/nu mice (8-10 weeks old) were used for all in vivo xenograft studies. Mice were quarantined for at least 1 week before experimental manipulation. Exponentially growing cells or in vivo passaged tumor fragments were implanted subcutaneously at the right flank of nude mice. Tumor-bearing mice were randomized according to tumor size into 6-8 mice/group in each study (average tumor size ˜150 mm^3). Mice were observed daily for survival and tumors were measured twice weekly by caliper in two dimensions and converted to tumor mass using the formula for a prolate ellipsoid (V=0.5 a×b^2), where a and b are the long and short diameters of the tumor, respectively, and assuming unit density (1 mm^3=1 mg).
# Combination study: PARP inhibitory compounds described herein in vehicle 10% DMAc/6% Solutal/84% PBS, were either administered orally, once daily for 5 days with Temozolomide (17 mg/kg or 34 mg/kg, p.o., qd×5, 30 min after each dose of compounds) in SW620 xenograft model or dosed orally, once daily for 8 days with 6 mg/kg Cisplatin (once by ip on day 3, 30 min after first dose of PARP inhibitors) in MX-1 xenograft model. Mice were observed and individual tumor was measured for 30 more days after the last dosing of PARP inhibitory compounds.
# Chain of PARP-1 (P09874 whole entry, species assumed): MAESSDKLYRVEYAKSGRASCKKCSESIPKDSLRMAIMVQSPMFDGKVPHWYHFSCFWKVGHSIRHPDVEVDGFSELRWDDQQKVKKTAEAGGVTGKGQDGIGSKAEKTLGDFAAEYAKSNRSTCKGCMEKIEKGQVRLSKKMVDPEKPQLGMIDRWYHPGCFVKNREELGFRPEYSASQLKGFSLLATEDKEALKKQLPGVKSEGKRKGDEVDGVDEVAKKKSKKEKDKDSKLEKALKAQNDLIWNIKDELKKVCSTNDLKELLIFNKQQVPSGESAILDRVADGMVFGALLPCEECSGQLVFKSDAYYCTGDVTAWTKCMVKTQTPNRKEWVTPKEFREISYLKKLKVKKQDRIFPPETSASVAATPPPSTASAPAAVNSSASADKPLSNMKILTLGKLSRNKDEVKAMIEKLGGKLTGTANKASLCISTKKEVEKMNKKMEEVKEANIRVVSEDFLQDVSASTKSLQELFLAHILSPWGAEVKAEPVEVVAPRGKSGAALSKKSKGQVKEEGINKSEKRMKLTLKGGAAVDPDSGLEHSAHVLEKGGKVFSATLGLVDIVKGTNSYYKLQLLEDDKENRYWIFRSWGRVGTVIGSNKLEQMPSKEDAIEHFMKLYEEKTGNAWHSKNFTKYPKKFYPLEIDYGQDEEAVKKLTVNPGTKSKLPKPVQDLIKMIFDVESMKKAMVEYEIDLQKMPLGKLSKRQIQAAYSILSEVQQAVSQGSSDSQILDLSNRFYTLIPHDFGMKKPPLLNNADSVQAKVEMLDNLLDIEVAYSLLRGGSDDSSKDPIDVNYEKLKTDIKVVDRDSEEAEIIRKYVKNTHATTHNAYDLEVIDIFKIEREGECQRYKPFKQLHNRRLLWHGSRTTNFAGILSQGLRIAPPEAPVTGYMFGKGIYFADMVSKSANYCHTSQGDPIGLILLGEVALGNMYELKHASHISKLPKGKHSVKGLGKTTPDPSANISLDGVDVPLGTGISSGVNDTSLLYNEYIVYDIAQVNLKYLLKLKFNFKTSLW
Compound,Ki [1],sensitivity in clonogenic survival assay [2],sensitivity in clonogenic survival assay [3],"in vivo efficacy, tumor growth [4]","tumor inhibition, agent alone [5]"
CN(C)Cc1ccc(-c2nc3cccc4c3n2CCNC4=O)cc1 [AG14361],5 nM,exhibited sensitivity,–,–,–
O=C1CCC(=O)N1c1cc(Cc2n[nH]c(=O)c3ccccc23)ccc1F [KU0058684],–,–,showing sensitivity to PARP inhibition,shown in vivo efficacy in blocking the growth of BRCA2-deficient tumors,–
Cc1nc2c(O)cccc2c(=O)[nH]1 [NU1025],50 nM,exhibited sensitivity,–,–,–
N.N.[Cl][Pt][Cl] [cisplatin],–,–,–,–,only small to modest tumor inhibition
